Experiments:
[1] = tested on: Hermetia illucens larvae; test: Maggot Inhibitory Assay (MIA) with solutions of insecticide or lidocaine infused into wet chicken feed (Example 3); type: in vivo; details: for insecticide or repellant activity as demonstrated by weight loss and maggot death: solution or neat liquid mixed into wet chicken feed, 5 larvae per dish, ~30 °C
Source text: Determination of anti-myiasis activity by solutions of insecticide, or a lidocaine solution, was studied by Maggot Inhibitory Assay (MIA).
Seven (7) Test and Control Articles: Wet chicken feed (positive control), Tetrahydrafuran infused feed (THF; carrier control), Isopropyl Myristate infused feed (IPM; permeation enhancer control), Lidocaine solution infused feed (LD), Ivermectin infused feed (Iver), Imidacloprid infused feed (IMI), Spinosad infused feed (Spin).
One (1) test organism: Hermetia illucens larvae, “medium size” 3rd instar feeding (crop-full), mean weight 45-60 mg.
• Contact Time: 7 Days • Contact Temperature: 30±2° C. Test Method Overview: See FIG. 10 for Diagrammatic Overview.
Fresh wet chicken feed (WCF) and Hermetia illucens larvae (3rd instar feeding (crop-full) mean weight 45-60 mg) were obtained within 48 hours of the start of the testing. A small (60 mm diameter) petri dish served as the test container for each replicate. Solutions of the test substances were added onto the fresh WCF, and then the WCF with solution was placed into the center of the container and weighed. The POS control utilized an approximately similar-sized sample of fresh WCF, without any solution being added. Five (5) larvae were placed on each test and control article infused the fresh WCF. The lid was placed on the petri dish and the dish was wrapped in parafilm. The test and control containers were kept in an incubator at ˜30° C. temperature, in the dark. Larvae were observed daily for up to two (2) weeks, noting motility and pupation.
A portion of the solution was retained in a sealed glass vial for possible QA/QC. The WCF sample with solution added was mixed thoroughly and left in a fume hood for up to 72 hours to let THE evaporate off.
Test and control containers had about 2.0 g of test solution infused WCF placed into the center of the wetted filter paper.
Each test and control article were prepared in the individual 60 mm petri dishes in triplicate as described, >48 hours before study start. Five (5) larvae were weighed as a group and recorded for each test and control article. The lid was placed on the petri fish and this was wrapped in parafilm, as described. The test and control containers were kept in the incubator at temperature ˜30° C. in the dark. Larvae are observed daily up to two weeks, noting observations on food consumption, weight and pupation.
The weight of the 5 larvae in each assay replicate were determined and recorded by: (a) removing the lid and weighing the container without the lid (larvae+WCF+container); and (b) taring the scale and gently placing the 5 larvae into the lid and recording the total weight.
The results are shown in FIG. 11 as weight gain per maggot over time. At time 0, 5 maggots were placed into each of 3 pre-weighed petri dishes WCF mixed with the following, as described: nothing (OTS), Tetrahydrofuran (THF), Isopropyl Myristate (IPM), Lidocaine (LD), Ivermectin (Iver), Imidacloprid (IMI), or Spinosad (Spin). At each indicated time point, the weight of maggots was recorded and divided by the number of maggots per dish to calculate the weight per maggot. The weight per maggot at time 0 was then subtracted from that at each time point to calculate the weight gain per maggot. Bars represent the mean±standard deviation of 3 replicate petri dishes. In FIG. 11, statistical significance for each solution, relative to the OTS control, was determined using a repeated measures mixed effects model and each petri dish as the experimental unit (fixed effects were time, solution, and time×solution interaction; random effects were individual petri dishes and residuals); p-values were corrected for multiple comparisons with Dunnett's test. *, p<0.05; **, p<0.01; ***, p<0.001; ****, p<0.0001.

[2] = tested on: Hermetia illucens larvae; test: Maggot Inhibitory Assay (MIA) with ivermectin and lidocaine bands, unused or previously affixed to Holstein calves (Example 4); type: in vivo; details: positive control solution (1.31 g in 2.35 g THF) in wet chicken feed
Source text: Evaluation of duration of efficacy of anti-myiasis activity by elastomeric bands loaded/infused with insecticide, with or without an active agent for the topical treatment of pain, was studied via ex vivo tissue and band collection and using Maggot Inhibitory Assay (MIA).
Experimental goal: The aim of this experiment was to assess the long-term function of elastomeric bands infused with insecticide, with or without lidocaine, to inhibit the growth of larvae using the novel MIA test disclosed herein, by evaluating the function of ex vivo tissue biopsies taken from scrotal tissue and drug-infused elastomeric bands which were previously placed on Holstein calves for various time periods (3, 7, 14, 21 and 30 days). The protocol used and presented here is based on published literature (Kotze et al., (2022) “Resistance to dicyclanil and imidacloprid in the sheep blowfly, Lucilia cuprina, in Australia”, Pest Manag Sci, 78:4195-4206).
Ivermectin control: A solution of ivermectin was prepared as a positive control (1.31 g ivermectin into 2.35 g of THF). (n=3)
Exposed ILLB: Elastomeric bands infused with ivermectin and lidocaine that were affixed to scrotal sites and removed at each time point. (n=3×5 experiments=15) […]
Animals were randomly allocated to the study. […] Animal IDs and treatment codes were recorded. […] Animals were monitored for any adverse effects. […]

Row | Compound | insecticide or repellant activity as demonstrated by weight loss and maggot death [1] | activity as an insecticide compared with commercial insecticides (ivermectin, imidacloprid, spinosad) ([1]; lidocaine in solution and infused into an elastomeric band) | maggot weight change [2]
1 | C1CCOC1 [Tetrahydrofuran] | no insecticide or repellant activity |  | 
2 | O=[N+]([O-])NC1=NCCN1Cc1ccc(Cl)nc1 [imidacloprid] | effective insecticide or repellant activity |  | 
3 | CCCCCCCCCCCCCC(=O)OC(C)C [isopropyl myristate] | no insecticide or repellant activity |  | 
4 | CCN(CC)CC(=O)Nc1c(C)cccc1C [lidocaine solution, lidocaine] | effective insecticide or repellant activity | equivalent to commercial insecticides | 
5 | ivermectin | effective insecticide or repellant activity |  | a decline or no weight gain
6 | spinosad | effective insecticide or repellant activity |  | 
